This is an account of results in patent publication US20260042762A1 (Kymera Therapeutics, Inc., priority 2018, published 2026).

Structures can show the parent of a compound that is named as a salt. Some results are limits rather than exact numbers.

This experiment concerns the target T1, MerTK (Homo sapiens, UniProt Q12866).
T1 construct: endogenous in cells; host or cells: Jurkat cells
T1 sequence (Q12866 21-999): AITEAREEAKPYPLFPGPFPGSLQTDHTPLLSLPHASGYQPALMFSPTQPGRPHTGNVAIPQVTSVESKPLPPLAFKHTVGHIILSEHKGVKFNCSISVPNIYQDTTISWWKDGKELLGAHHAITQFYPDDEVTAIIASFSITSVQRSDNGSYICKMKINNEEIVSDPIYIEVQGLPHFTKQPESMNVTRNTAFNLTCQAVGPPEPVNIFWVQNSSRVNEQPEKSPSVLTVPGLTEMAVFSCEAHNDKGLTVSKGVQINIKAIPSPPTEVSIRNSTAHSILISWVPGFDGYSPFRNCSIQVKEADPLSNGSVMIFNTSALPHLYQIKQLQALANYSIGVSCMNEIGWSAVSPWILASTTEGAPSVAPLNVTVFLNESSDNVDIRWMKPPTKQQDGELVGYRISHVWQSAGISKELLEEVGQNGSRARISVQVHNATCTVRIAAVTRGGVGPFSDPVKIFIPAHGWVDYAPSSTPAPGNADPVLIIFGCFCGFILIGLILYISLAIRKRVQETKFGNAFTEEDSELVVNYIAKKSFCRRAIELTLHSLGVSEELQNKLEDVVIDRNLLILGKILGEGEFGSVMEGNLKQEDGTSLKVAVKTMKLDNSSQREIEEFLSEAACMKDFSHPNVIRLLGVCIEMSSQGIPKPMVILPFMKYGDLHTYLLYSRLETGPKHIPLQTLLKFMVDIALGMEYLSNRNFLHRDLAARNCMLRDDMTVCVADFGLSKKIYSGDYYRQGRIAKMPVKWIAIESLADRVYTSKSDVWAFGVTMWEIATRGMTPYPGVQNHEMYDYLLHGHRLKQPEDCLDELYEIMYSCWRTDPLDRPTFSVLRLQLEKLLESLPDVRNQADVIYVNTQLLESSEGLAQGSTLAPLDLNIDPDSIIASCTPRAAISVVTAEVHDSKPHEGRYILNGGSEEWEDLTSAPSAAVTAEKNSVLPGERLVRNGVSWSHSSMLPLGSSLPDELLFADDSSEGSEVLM
In words: MerTk degradation in Jurkat cells (Western blot). As to conditions: 0.001-1 μM, 4 hour-incubation at 37° C.; for Dmax: Jurkat, 4 h, read-out: Jurkat Max % MerTK Degradation. The format is cell-based. In short, it runs like this:
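Jurkat cells treated 4 h at 37 °C with compound at 0.001-1 μM final. RIPA lysates quantified by BCA, then MerTK probed by Western blot against actin loading control with IR-dye secondaries and Odyssey imaging.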

Take `CCCCNc1ncc2c(n1)n([C@H]1CC[C@H](O)CC1)cc2[C@H]1CC[C@H](CN2CCN(CCOCCOCCOCCOCCCc3ccc4c(c3)n(C)c(=O)n4[C@H]3CCC(=O)NC3=O)CC2)CC1` [I-90, 3-[3-methyl-2-oxo-5-[1-(4-[[(1r,4r)-4-[2-(butylamino)-7-[trans-4-hydroxycyclohexy1]-7H-pyrrolo[2,3-d]pyrimidin-5-yl]cyclohexyl]methyl]piperazin-1-yl)-3,6,9,12-tetraoxapentadecan-15-y1]-2,3-dihydro-1H-1,3-benzodiazol-1-yl]piperidine-2,6-dione]: the Dmax is greater than 50%. As for `CCCCNc1ncc2c(-c3ccc(C(C)N4CCN(CCOCCOCCOCCOCCCc5ccc6c(c5)n(C)c(=O)n6C5CCC(=O)NC5=O)CC4)cc3)cn([C@H]3CC[C@H](O)CC3)c2n1` (stereo partly drawn) [I-59, 3-(5-[1-[4-(1-[4-[2-(butylamino)-7-[trans-4-hydroxycyclohexy1]-7H-pyrrolo[2,3-d]pyrimidin-5-yl]phenyl]ethyl)piperazin-1-yl]-3,6,9,12-tetraoxapentadecan-15-y1]-3-methyl-2-oxo-2,3-dihydro-1H-1,3-benzodiazol-1-yl)piperidine-2,6-dione], the Dmax was greater than 50%. Still for that read-out and setting: then `Cn1c(=O)n([C@H]2CCC(=O)NC2=O)c2cccc(CCCOCCOCCN3CCN(Cc4ccc(-c5cn([C@H]6CC[C@H](O)CC6)c6nc(NCCC(F)(F)F)ncc56)cc4)CC3)c21` [I-135, 3-(3-methyl-2-oxo-4-[3-[2-(2-[4-[(4-[7-[trans-4-hydroxycyclohexyl]-2-[(3,3,3-trifluoropropyl)amino]pyrrolo[2,3-d]pyrimidin-5-yl]phenyl)methyl]piperazin-1-yl]ethoxy)ethoxy]propyl]-1,3-benzodiazol-1-y1)piperidine-2,6-dione], with greater than 50%; and `O=C1CC[C@H](n2c3cc(CCCOCCOCCN4CCN(Cc5ccc(-c6cn([C@H]7CC[C@H](O)CC7)c7nc(NCCC(F)(F)F)ncc67)cc5)CC4)ccc3c3cccnc32)C(=O)N1` [I-127, 3-(7-[3-[2-(2-[4-[(4-[7-[trans-4-hydroxycyclohexy1]-2-[(3,3,3-trifluoropropyl)amino]-7H-pyrrolo[2,3-d]pyrimidin-5-yl]phenyl)methyl]piperazin-1-yl]ethoxy)ethoxy]propyl]-9H-pyrido[2,3-b]indol-9-yl)piperidine-2,6-dione], with 20 to 50%. In the case of `C[C@H](CC(F)(F)F)Nc1ncc2c(-c3ccc(CN4CCN(CCCO[C@H]5CCN(Cc6ccc7c(c6)n(C)c(=O)n7C6CCC(=O)NC6=O)C5)CC4)cc3)cn([C@H]3CC[C@H](O)CC3)c2n1` (stereo partly drawn) [I-210, 3-(3-methyl-2-oxo-5-[[(3R)-3-(3-[4-[(4-[7-[trans-4-hydroxycyclohexy1]-2-[[(2S)-4,4,4-trifluorobutan-2-yl]amino]pyrrolo[2,3-d]pyrimidin-5-yl]phenyl)methyl]piperazin-1-yl]propoxy)pyrrolidin-1-yl]methyl]-1,3-benzodiazol-1-yl)piperidine-2,6-dione], the “Jurkat Max % MerTK Degradation” value is “C (maximum MerTK degradation less than or equal to 20% (≤20%))”. Take `CN1CCN(Cc2ccc(-c3ccc(CO[C@H]4CCC[C@@H]4NC(=O)c4cc(-c5cnn(CCOCCCc6cccc7c6n(C)c(=O)n7C6CCC(=O)NC6=O)c5)cnc4N)cc3)cc2)CC1` (stereo partly drawn) [I-218, 2-Amino-5-[1-(2-[3-[1-(2,6-dioxopiperidin-3-yl)-3-methyl-2-oxo-1,3-benzodiazol-4-yl]propoxy]ethyl)pyrazol-4-yl]-N-[(1S,2S)-2-([4-[(4-methylpiperazin-1-yl)methyl]-[1,1-biphenyl]-4-yl]methoxy)cyclopentyl]pyridine-3-carboxamide]: the Dmax is less than 20%. Consider `Cn1c(=O)n([C@H]2CCC(=O)NC2=O)c2ccc(CCCOCCCCN3CCN(Cc4ccc(-c5cn(C6CCCCC6)c6nc(NCCC(F)(F)F)ncc56)cc4)CC3)cc21` [I-84, 3-[5-[3-(4-[4-[(4-[7-cyclohexy1-2-[(3,3,3-trifluoropropyl)amino]-7H-pyrrolo[2,3-d]pyrimidin-5-y1]phenyl)methyl]piperazin-1-yl]butoxy)propyl]-3-methyl-2-oxo-2,3-dihydro-1H-1,3-benzodiazol-1-yl]piperidine-2,6-dione], for which the Dmax is greater than 50%. Same read-out and setting: then `Cc1ncsc1-c1ccc(CNC(=O)[C@@H]2C[C@@H](O)CN2C(=O)[C@@H](NC(=O)CCCCCN2CCN(Cc3ccc(-c4cn([C@H]5CC[C@H](O)CC5)c5nc(NCCC(F)(F)F)ncc45)cc3)CC2)C(C)(C)C)cc1` [I-161, (2S,4R)-1-[(2S)-3,3-dimethyl-2-(6-[4-[(4-[7-[trans-4-hydroxycyclohexyl]-2-[(3,3,3-trifluoropropyl)amino]pyrrolo[2,3-d]pyrimidin-5-yl]phenyl)methyl]piperazin-1-yl]hexanamido)butanoyl]-4-hydroxy-N-[[4-(4-methyl-1,3-thiazol-5-yl)phenyl]methyl]pyrrolidine-2-carboxamide], with less than 20%; and `Cn1c(=O)n([C@H]2CCC(=O)NC2=O)c2ccc(CCCOCCCOCCCNCc3ccc(-c4cn([C@H]5CC[C@H](O)CC5)c5nc(NCCC(F)(F)F)ncc45)cc3)cc21` [I-51, 3-(3-methyl-2-oxo-5-[3-[3-(3-[[(4-[7-[trans-4-hydroxycyclohexy1]-2-[(3,3,3-trifluoropropyl)amino]-7H-pyrrolo[2,3-d]pyrimidin-5-yl]phenyl)methyl]amino]propoxy)propoxy]propyl]-2,3-dihydro-1H-1,3-benzodiazol-1-y1)piperidine-2,6-dione hydrochloride], with greater than 50%; and `Cn1c(=O)n([C@H]2CCC(=O)NC2=O)c2ccc(CCCN3CC(N4CCN(Cc5ccc(-c6cn([C@H]7CC[C@H](O)CC7)c7nc(NCCC(F)(F)F)ncc67)cc5)CC4)C3)cc21` [I-116, 3-[3-methyl-2-oxo-5-[3-(3-[4-[(4-[7-[trans-4-hydroxycyclohexyl]-2-[(3,3,3-trifluoropropyl)amino]-7H-pyrrolo[2,3-d]pyrimidin-5-yl]phenyl)methyl]piperazin-1-yl]azetidin-1-y1)propyl]-2,3-dihydro-1H-1,3-benzodiazol-1-yl]piperidine-2,6-dione], with greater than 50%. As to `CCCCNc1ncc2c(-c3ccc(CN4CCN(CCCOCCCc5ccc6c(c5)n(C)c(=O)n6[C@H]5CCC(=O)NC5=O)CC4)cc3)cn([C@H]3CC[C@H](O)CC3)c2n1` [I-69, 3-[5-(3-[3-[4-([4-[2-(butylamino)-7-[trans-4-hydroxycyclohexy1]-7H-pyrrolo[2,3-d]pyrimidin-5-yl]phenyl]methyl)piperazin-1-yl]propoxy]propyl)-3-methyl-2-oxo-2,3-dihydro-1H-1,3-benzodiazol-1-yl]piperidine-2,6-dione; bis(formic acid)], the Dmax is greater than 50%. Still for that read-out and setting: then `Cn1c(=O)n([C@H]2CCC(=O)NC2=O)c2ccc(CCCOCCCN3CCN(Cc4cn([C@H]5CC[C@H](O)CC5)c5nc(NCCC(F)(F)F)ncc45)CC3)cc21` [I-140, 3-[3-methyl-2-oxo-5-(3-[3-[4-([7-[trans-4-hydroxycyclohexy1]-2-[(3,3,3-trifluoropropyl)amino]pyrrolo[2,3-d]pyrimidin-5-yl]methyl)piperazin-1-yl]propoxy]propyl)-1,3-benzodiazol-1-yl]piperidine-2,6-dione; formic acid], with 20 to 50%.
